The source of these data is patent publication US8071810B2, “C5a receptor antagonists” (Jerini AG, priority 2005, dated 2011).

Data set [1] concerns C5a induced neutropenia. In words: C5a induced neutropenia in gerbils (Example 35). Type of data set: in vivo, gerbils (Meriones unguiculatus). To be noted: gerbil. An excerpt: C5a induced neutropenia is a model for shock induced diseases (e.g. septic shock), where amongst others the systemic role of C5a (blood pressure decrease, neutropenia) plays an important role. The reason for the decrease of the neutrophils in the circulation is their binding to the vessel walls due to the C5a stimulus. These processes of neutrophil recruitment are playing an important role in many other diseases like reperfusion injury. […]
Male gerbils (Meriones unguiculatus) are anaesthesized i.p. with ketamine (80 mg/kg) and xylazine (12 mg/kg). The animals are intubated and a catheter is inserted in the jugular vene and the animals are subjected to the following procedure:
1. The gerbils are pre-treated with vehicle or the compounds of the present invention 80 (3 mg/kg) or 131 (1 mg/kg) via i.v. infusion.
One minute before compound treatment a blood sample is taken.
2. 10 minutes after the infusion of the compounds the gerbils are treated i.v. with 100 μg/kg hrC5a. […]
White blood cell counts are measured with a haematology-cell-counter. […]
The differential cell count is determined as the sum of neutrophils, eosinophile, easophile, lymphocytes and monocytes from 100 cells. Then, the percentage of neutrophils in relation to all white blood cells is determined. […]

In data set [2] the target is T1, C5a receptor (Homo sapiens, UniProt P21730).
T1 sequence (P21730 1-350): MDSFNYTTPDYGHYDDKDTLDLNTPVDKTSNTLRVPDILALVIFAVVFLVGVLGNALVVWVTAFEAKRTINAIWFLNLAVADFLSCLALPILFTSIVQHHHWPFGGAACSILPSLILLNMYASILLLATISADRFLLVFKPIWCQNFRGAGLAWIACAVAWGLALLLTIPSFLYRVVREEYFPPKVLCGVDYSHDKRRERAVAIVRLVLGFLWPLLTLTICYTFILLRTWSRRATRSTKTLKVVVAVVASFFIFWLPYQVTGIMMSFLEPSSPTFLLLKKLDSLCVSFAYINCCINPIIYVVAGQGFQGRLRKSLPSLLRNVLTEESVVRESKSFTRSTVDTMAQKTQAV
To be noted: cited from earlier work.

Data set [3] concerns the target T1, C5a receptor. To be noted: cited from earlier work. The source holds these as a separate data set.
A short description of data set [4]: Solubility in aqueous HEPES buffer by HPLC (Example 33). It counts as physicochemical. To be noted: kinetic from dmso stock. On the procedure:
To determine the solubility the compound to be measured is dissolved (e.g, […] of a 5 mM solution in DMSO) in organic solvent (e.g. 198 μl DMSO) as well as in aqueous buffer solution (e.g. 198 μl HEPES buffer). Both solutions are analyzed via analytical HPLC and the areas under the peaks are compared. The value for the organic solution is taken as 100%.

Data set [5] has as its target T2, human C5a receptor (CD88) (Homo sapiens, UniProt P21730).
T2 construct: expressed in transfected cells; host or cells: rat basophilic leukemia (RBL) cells, stably transfected
T2 sequence (P21730 1-350): T1 sequence (P21730 1-350)
As to the kind of experiment: C5a induced enzyme (glucosaminidase) release assay in RBL cells expressing the human C5a receptor (Example 28). Type of data set: cell-based. To be noted: inhibition of C5a induced enzyme release, RBL cells with human C5aR; read-out: Activity-range (antagonistic activity, IC50 enzyme release). In short, it runs like this: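 Rat basophilic leukemia (RBL) cells expressing human C5a receptor, at 2×10^6 cells/ml, primed with cytochalasin B, then incubated with test compound 10 min at 37 °C.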

A short description of data set [6]: Stability (shelf life) as solid TFA salt, RP-HPLC (Example 25). Type of data set: physicochemical. To be noted: light, room temperature, up to 7 days. On the procedure: The fractions containing the desired compound are lyophilized. In this way 1-40 mg of the compounds 11 and 13 are isolated as solid. Due to the basic amino groups the compounds are obtained as TFA salts. 0.5-10 mg of the solid are stored under the influence of light at room temperature to determine their stability over time.
The conditions were as follows:
FIG. 1 A): after purification via HPLC (solution in MeCN/H2O/TFA),
FIG. 1 B) after lyophilization (0 days of storage as solid)
FIG. 1 C) after 7 days of storage as solid

The target of data set [7] is T1, C5a receptor. To be noted: cited from earlier work. This is another data set of the same source.

≈ marks a conversion by molar mass, not a printed value.

Consider `CCc1c(N)cc(Cl)c(CC)c1NC(=O)N(c1ccc(NC)cc1)[C@@H](C)c1ccc(Cl)cc1` [compound 131, (S)-3-(3-amino-5-chloro-2,6-diethyl-phenyl)-1-[1-(4-chloro-phenyl)-ethyl]-1-(4-methylamino-phenyl)-urea], for which the “Effect on C5a induced neutropenia” value in data set [1] (1 mg/kg i.v. infusion 10 min before 100 μg/kg hrC5a) is “significantly reduces C5a induced neutropenia”.

Consider `NC(N)=Nc1ccc(OCCc2ccccc2)c(-c2ccccc2)c1` [Compound 5], for which, in data set [2], the activity is 0.8 µM.

On to `CC(C)Cc1ccc([C@@H](C)C(=O)NCCC[N+]2(C)CCCCC2)cc1.[I-]` [Compound 6], for which the “activity in a chemotaxis assay” value in data set [3] is 24 µM.

On to `CCc1ccc(N(C(=O)Nc2c(CC)c(N)cc(Cl)c2CC)[C@@H](C)c2ccc(Cl)cc2)cc1` [compound 80, (S)-3-(3-amino-5-chloro-2,6-diethyl-phenyl)-1-[1-(4-chlor-phenyl)-ethyl]-1-(4-ethyl-phenyl)-urea], for which the “Effect on C5a induced neutropenia” value in data set [1] (3 mg/kg i.v. infusion 10 min before 100 μg/kg hrC5a) is “significantly reduces C5a induced neutropenia”. Moreover, in data set [4], the concentration in solution (solubility) came to 4 µM (≈ 1.94 µg/mL). Further, the 50% inhibitory concentration (IC50) in data set [5] was less than 60 nM.

For `CC(C)c1ccc(N(Cc2ccc(N(C)C)cc2)C(=O)Nc2c(C(C)C)cccc2C(C)C)cc1` [Compound 11, 3-(2,6-diisopropyl-phenyl)-1-(4-dimethylamino-benzyl)-1-(4-isopropyl-phenyl)-urea, reference compound], in data set [6], the “Stability on storage as solid” value is on record as “not stable”. For the same molecule, the “binding affinity to the C5a receptor” value in data set [7] was 100 nM. The IC50 in data set [5] was in the range of 200 to 5000 nM.
